Where two headings read alike, the source gives them in different places.
How the values were obtained:
[1] = test system: relapsed or refractory DLBCL; conditions: cited from earlier work
[2] = L-MIND phase 2 study: safety (adverse events)
Procedure: MOR00208 was administered intravenously at a dose of 12 mg/kg, over approximately 2 hours. For cycles 1 to 3, MOR00208 was administered weekly on days 1, 8, 15, and 22; an additional loading dose was administered on day 4 of cycle 1. […] Patients self-administered lenalidomide orally, starting with 25 mg daily on days 1-21 of each 28-day cycle. A step-wise dose reduction (decrease by 5 mg/day in each step, only once per cycle, without re-escalation) of lenalidomide was permitted in case of protocol-defined toxicities.
Efficacy analyses are based on the full analysis set comprising all patients who received at least one dose of both MOR00208 and lenalidomide; safety analyses were based on those who received at least one dose of either study medication.

Molecule | Objective response rate ([1]; prior studies in similar populations) [%] | Objective response rate ([1]; single-agent, relapsed or refractory DLBCL (Ann. Oncol. 29, 1266-1272, 2018)) [%] | Grade 3 or 4 neutropenia ([2]; MOR00208 monotherapy after discontinuation of lenalidomide, 6/51 patients) [%] | Adverse events of grade 3 or 4 ([2]; after lenalidomide discontinuation, 15/51 patients) [%]
Nc1cccc2c1CN(C1CCC(=O)NC1=O)C2=O (stereo not shown) [lenalidomide] | 28 | – | – | –
MOR00208: Fc-enhanced humanized anti-CD19 monoclonal antibody, sequences in Table 1 (SEQ ID NO: 1-12) | – | 26 | 11.8 | 29.4
